Values joined by “and” are separate entries in the source; they are usually repeats but may differ in a detail not shown here. Equal values may be shown once. Inconclusive results and toxic doses are left out. Square brackets hold non-standard residues; d marks the D form. Peptide text beside a SMILES is read from it. * marks the point of attachment. ξ: configuration not given here. Cbz = O=C(OCc1ccccc1)*; ξI = CCC(C)C(N)C(=O)O

The assay deals with BDF1 mice, B16 melanoma ip, median survival T/C. Nature of the assay: NCI In Vivo Anticancer Drug Screen. Data for tumor model B16 Melanoma (intraperitoneal) in B6D2F1 (BDF1) mice. The conditions noted are these: endpoint: median survival time, higher = longer survival. In outline: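 Transplantable tumor model; survival or tumor size measured; reported as T/C, treated over vehicle control.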

Setting [1] is: dose: 100.0 mg/kg/injection, schedule: Q04DX003 (ip), vehicle: saline with Tween-80.
The mark [2] stands for this setting: dose: 400.0 mg/kg/injection, schedule: Q04DX003 (ip), vehicle: saline with Tween-80.
[3] abbreviates: dose: 100.0 mg/kg/injection, schedule: Q01DX009 (ip), vehicle: saline.
Setting [4] is: dose: 200.0 mg/kg/injection, schedule: Q01DX009 (ip), vehicle: saline.
Where [5] appears, read: dose: 12.5 mg/kg/injection, schedule: Q01DX009 (ip), vehicle: saline with Tween-80.
The mark [6] stands for this setting: dose: 25.0 mg/kg/injection, schedule: Q01DX009 (ip), vehicle: saline with Tween-80.
Where [7] appears, read: dose: 50.0 mg/kg/injection, schedule: Q01DX009 (ip), vehicle: saline with Tween-80.
Where [8] appears, read: dose: 100.0 mg/kg/injection, schedule: Q01DX009 (ip), vehicle: Klucel (hydroxypropylcellulose) (HPC).
The mark [9] stands for this setting: dose: 200.0 mg/kg/injection, schedule: Q01DX009 (ip), vehicle: Klucel (hydroxypropylcellulose) (HPC).
Where [10] appears, read: dose: 400.0 mg/kg/injection, schedule: Q01DX009 (ip), vehicle: Klucel (hydroxypropylcellulose) (HPC).
Setting [11] is: dose: 100.0 mg/kg/injection, schedule: Q01DX009 (ip), vehicle: saline with Tween-80.
Where [12] appears, read: dose: 200.0 mg/kg/injection, schedule: Q01DX009 (ip), vehicle: saline with Tween-80.

With `CN(C)CCCNC(=S)S`, the T/C is 100 % of control (dose: 6.25 mg/kg/injection, schedule: Q01DX009 (ip), vehicle: saline); 97 % of control (dose: 12.5 mg/kg/injection, schedule: Q01DX009 (ip), vehicle: saline); 111 % of control (dose: 12.5 mg/kg/injection, schedule: Q04DX003 (ip), vehicle: saline); 110 % of control (dose: 25.0 mg/kg/injection, schedule: Q01DX009 (ip), vehicle: saline); 111 % of control (dose: 25.0 mg/kg/injection, schedule: Q04DX003 (ip), vehicle: saline); 94 % of control (dose: 50.0 mg/kg/injection, schedule: Q04DX003 (ip), vehicle: saline).

Consider `COC(=O)/C=C/c1ccc([N+](=O)[O-])cc1`, for which the T/C is 90 % of control under setting [1]; 93 % of control (dose: 200.0 mg/kg/injection, schedule: Q04DX003 (ip), vehicle: saline with Tween-80); 86 % of control under setting [2].

Consider `Cc1cc(=O)[nH]c2c(C)cc(-c3cc(C)c4[nH]c(=O)cc(C)c4c3)cc12`, for which the T/C reads like this: under setting [3], 102 % of control; under setting [4], 108 % of control; (dose: 400.0 mg/kg/injection, schedule: Q01DX009 (ip), vehicle: saline) 105 % of control.

As for `CCCCC(=O)NN`, the T/C reads like this: under setting [5], 102 % of control; under setting [6], 96 % of control; under setting [7], 100 % of control.

Turning to `Cc1cc(=O)[nH]c(N/N=C/c2cc(Cl)ccc2O)n1`, the T/C by setting is: under setting [5], 93 % of control; under setting [6], 90 % of control; under setting [7], 86 % of control.

For the compound `CC[CH2][Pb]([CH2]CC)([CH2]CC)[O]C(=O)C(F)(F)F`, the T/C is, setting by setting: (dose: 0.39 mg/kg/injection, schedule: Q01DX009 (ip), vehicle: saline with Tween-80) 93 % of control; (dose: 0.78 mg/kg/injection, schedule: Q01DX009 (ip), vehicle: saline with Tween-80) 111 % of control; (dose: 1.5 mg/kg/injection, schedule: Q01DX009 (ip), vehicle: saline with Tween-80) 104 % of control; (dose: 3.0 mg/kg/injection, schedule: Q01DX009 (ip), vehicle: saline with Tween-80) 98 % of control; (dose: 3.12 mg/kg/injection, schedule: Q01DX009 (ip), vehicle: saline with Tween-80) 86 % of control.

On to `COc1ccc(CC(CO)C(CO)Cc2ccc(OC)c(OC)c2)cc1OC` (stereo not drawn), for which the T/C was 93 % of control under setting [8], 100 % of control under setting [9] and 103 % of control under setting [10].

Regarding `O=P(O)(O)OCC(O)CCl` (stereo not drawn), the T/C is 110 % of control (dose: 50.0 mg/kg/injection, schedule: Q01DX009 (ip), vehicle: saline); 103 % of control under setting [3]; 103 % of control under setting [4].

For the compound `Cc1c(Cl)cccc1NC(=O)c1ccccc1C(=O)O`, the T/C by setting is: under setting [8], 100 % of control; under setting [9], 102 % of control.

Consider `CSCCC(C#N)c1ccccc1` (stereo not drawn), for which the T/C is, setting by setting: under setting [7], 88 % of control; under setting [11], 88 % of control.

With `Cc1ccc(NC(=O)c2ccccc2)cc1Cl`, the T/C runs as follows: under setting [8], 101 % of control; under setting [9], 103 % of control; under setting [10], 101 % of control.

Consider `CSc1nc(Cl)c(Br)c(Cl)n1`, for which the T/C is 110 % of control (dose: 1.56 mg/kg/injection, schedule: Q01DX009 (ip), vehicle: saline with Tween-80); 112 % of control (dose: 3.13 mg/kg/injection, schedule: Q01DX009 (ip), vehicle: saline with Tween-80); 102 % of control (dose: 6.25 mg/kg/injection, schedule: Q01DX009 (ip), vehicle: saline with Tween-80); 108 % of control under setting [5].

`CC(C)(C[NH-])C[NH-].[Cl][Pt+2][Cl]`: the T/C is, setting by setting: (dose: 0.5 mg/kg/injection, schedule: Q04DX003 (ip), vehicle: water) 164 % of control; (dose: 1.0 mg/kg/injection, schedule: Q04DX003 (ip), vehicle: water) 165 % of control and 183 % of control; (dose: 2.0 mg/kg/injection, schedule: Q04DX003 (ip), vehicle: water) 161 % of control and 201 % of control; (dose: 4.0 mg/kg/injection, schedule: Q04DX003 (ip), vehicle: water) 213 % of control.

`O=NN(CCCl)C(=O)NC1CCCCC1`: the T/C (dose: 4.0 mg/kg/injection, schedule: Q01DX001 (ip), vehicle: Klucel (hydroxypropylcellulose) (HPC)) is 102 % of control and 121 % of control; the T/C (dose: 4.0 mg/kg/injection, schedule: Q01DX001 (ip), vehicle: saline) is 107 % of control; the T/C (dose: 7.5 mg/kg/injection, schedule: Q01DX001 (ip), vehicle: other) was 107 % of control; the T/C (dose: 8.0 mg/kg/injection, schedule: Q01DX001 (ip), vehicle: Klucel (hydroxypropylcellulose) (HPC)) is 102 % of control; the T/C (dose: 12.5 mg/kg/injection, schedule: Q01DX010 (ip), vehicle: saline) was 115 % of control; the T/C (dose: 25.0 mg/kg/injection, schedule: Q01DX010 (ip), vehicle: saline) was 110 % of control. The T/C was 198 % of control (dose: 30.0 mg/kg/injection, schedule: Q01DX001 (ip), vehicle: other); 182 % of control and 312 % of control (dose: 32.0 mg/kg/injection, schedule: Q01DX001 (ip), vehicle: Klucel (hydroxypropylcellulose) (HPC)); 113 % of control (dose: 50.0 mg/kg/injection, schedule: Q01DX010 (ip), vehicle: saline); 102 % of control (dose: 100.0 mg/kg/injection, schedule: Q01DX010 (ip), vehicle: saline).

Regarding `O=C(CCCN1CCC(O)(c2cccc(C(F)(F)F)c2)CC1)c1ccc(F)cc1`, the T/C by setting is: (dose: 0.04 mg/kg/injection, schedule: Q01DX009 (ip), vehicle: Klucel (hydroxypropylcellulose) (HPC)) 93 % of control; (dose: 0.19 mg/kg/injection, schedule: Q01DX009 (ip), vehicle: Klucel (hydroxypropylcellulose) (HPC)) 101 % of control; (dose: 0.39 mg/kg/injection, schedule: Q01DX009 (ip), vehicle: Klucel (hydroxypropylcellulose) (HPC)) 112 % of control; (dose: 0.78 mg/kg/injection, schedule: Q01DX009 (ip), vehicle: Klucel (hydroxypropylcellulose) (HPC)) 105 % of control; (dose: 4.0 mg/kg/injection, schedule: Q01DX009 (ip), vehicle: Klucel (hydroxypropylcellulose) (HPC)) 95 % of control; (dose: 8.0 mg/kg/injection, schedule: Q01DX009 (ip), vehicle: Klucel (hydroxypropylcellulose) (HPC)) 98 % of control.

As to `OCC1OC(n2nnc3cc[nH]c(=S)c32)C(O)C1O` (stereo not drawn), the T/C is, setting by setting: (dose: 3.13 mg/kg/injection, schedule: Q01DX009 (ip), vehicle: water) 97 % of control; (dose: 6.25 mg/kg/injection, schedule: Q01DX009 (ip), vehicle: water) 113 % of control; (dose: 12.5 mg/kg/injection, schedule: Q01DX009 (ip), vehicle: water) 101 % of control; (dose: 25.0 mg/kg/injection, schedule: Q01DX009 (ip), vehicle: water) 101 % of control.

Consider `FC(F)(F)c1ccc2c(c1)N(CCCN1CC[N+]3(CCOCC3)CC1)c1ccccc1S2`, for which the T/C is 105 % of control (dose: 0.5 mg/kg/injection, schedule: Q01DX009 (ip), vehicle: saline); 94 % of control and 102 % of control (dose: 1.0 mg/kg/injection, schedule: Q01DX009 (ip), vehicle: saline); 100 % of control and 105 % of control (dose: 2.0 mg/kg/injection, schedule: Q01DX009 (ip), vehicle: saline); 94 % of control (dose: 4.0 mg/kg/injection, schedule: Q01DX009 (ip), vehicle: saline).

Take `CC(=O)OC1CCC(C2CCCCC2)CC1` (stereo not drawn): the T/C under setting [11] is 111 % of control and the T/C under setting [12] was 118 % of control.

As for `CC1(C#N)CCc2c(ccc3ccccc23)C1=O` (stereo not drawn), the T/C runs as follows: (dose: 50.0 mg/kg/injection, schedule: Q04DX003 (ip), vehicle: other) 122 % of control; (dose: 100.0 mg/kg/injection, schedule: Q04DX003 (ip), vehicle: other) 107 % of control; under setting [1], 95 % of control; under setting [2], 95 % of control.

With `CCC(C)C(NC(=O)CNC(=O)CNC(=O)OCc1ccccc1)C(=O)O` (stereo not drawn) (Cbz-Gly-Gly-[ξI]-OH), the T/C reads like this: under setting [7], 94 % of control; under setting [11], 92 % of control; under setting [12], 91 % of control; (dose: 400.0 mg/kg/injection, schedule: Q01DX009 (ip), vehicle: saline with Tween-80) 86 % of control.

Values taken from PubChem BioAssay AID192 (DTP/NCI, 2004).
